According to patent US8747900B2, “Dosage form with improved release of cefuroximaxetil” (Gruenenthal GmbH, priority 2005, dated 2014):

Tests used:
[1] = Solubility / saturation solubility of cefuroximaxetil; format: physicochemical
[2] = cited from earlier work; for Solubility of the active ingredient (dissolved): after 45 minutes, standard method USP 23 page 316
[3] = Storage stability of the crystalline modification at elevated temperature; format: physicochemical
Protocol: The crystalline modification of cefuroximaxetil according to the invention is stable in storage. […] Even after storage for 2 months at 40° C. and 75% rel. atmospheric humidity, the content of the comparatively easily formed Δ^3-degradation product is still below 1.0 wt. %, which is indicative of excellent stability of the modification according to the invention.

[4] = Relative stability of binary mixtures of the modifications in water; format: physicochemical

CO/N=C(\C(=O)N[C@@H]1C(=O)N2C(C(=O)OC(C)OC(C)=O)=C(COC(N)=O)CS[C@H]12)c1ccco1 (stereo partly drawn) [Cefuroximaxetil, 1-acetoxyethyl ester of cefuroxime, i.e. of (6R,7R)-3-carbamoyloxymethyl-7-[(Z)-2-(fur-2-yl)-2-methoxyiminoacetamido]ceph-3-em-4-carboxylic acid]
Saturation solubility ([1]; in the dissolution medium (1000 ml), artificial gastric juice + Tween 80): 600 mg | Solubility ([1]; largely pH-independent): approx. 0.5 mg/ml

CO/N=C(\C(=O)N[C@@H]1C(=O)N2C(C(=O)OC(C)OC(C)=O)=C(COC(N)=O)CS[C@H]12)c1ccco1 (stereo partly drawn) [α-modification, cefuroximaxetil]
Solubility when tested according to USP 23 ([2]; minimum: 60% in 15 minutes, 75% within 45 minutes): does not achieve the specified minimum solubility

CO/N=C(\C(=O)N[C@@H]1C(=O)N2C(C(=O)OC(C)OC(C)=O)=C(COC(N)=O)CS[C@H]12)c1ccco1 (stereo partly drawn) [β-modification, cefuroximaxetil]
Solubility of the active ingredient (dissolved) [2]: over 40%

CO/N=C(\C(=O)N[C@@H]1C(=O)N2C(C(=O)OC(C)OC(C)=O)=C(COC(N)=O)CS[C@H]12)c1ccco1 (some centres unmarked) [γ-modification, cefuroximaxetil]
Solubility of the active ingredient (dissolved) [2]: 73.0%

CO/N=C(\C(=O)N[C@@H]1C(=O)N2C(C(=O)OC(C)OC(C)=O)=C(COC(N)=O)CS[C@H]12)c1ccco1 (some centres unmarked) [δ-modification, cefuroximaxetil]
Change to the composition, chemically (decomposition products) or physically (solubility, X-ray diffractogram) ([3]; after storage at elevated temperature): no significant change | Content of Δ^3-degradation product ([3]; after storage for 2 months at 40° C. and 75% rel. atmospheric humidity): below 1.0 wt. % | Stability relative to the α-, β- and γ-modification [4]: stabler
